ChEMBL document CHEMBL3137667, “[Drug-induced liver injury; fourteenth updated edition of the bibliographic database of liver injuries and related drugs]” (Gastroenterol Clin Biol, 2004)
*1 amine or outer side, *2 acyl side, *3 side chain or, on linkers, in order; H or OH if unused. Where a SMILES comes first, the peptide text is derived from it. Bridges are numbered along the chain shown (N, C = ends). Roman numbers before positions name the chains, in order. [ ]: non-standard residue; d: D form. Actinocin(9to1) = Cc1c2oc3c(C)ccc(C(=O)[*:1])c3nc-2c(C(=O)[*:2])c(N)c1=O; NMeV = CN[C@H](C(=O)O)C(C)C; Sar = CNCC(=O)O

Legend:
[1] = human
[2] = human, serum
[3] = Times to onset, minimal and maximal, observed in the indexed observations. [column 'DELAI' in source]; details: human
[4] = human; remark: listed apart in the source
[5] = Highest frequency of moderate liver toxicity observed during clinical trials, expressed as a percentage. [column '% BIOL' in source]; details: human
[6] = human; remark: listed apart in the source
[7] = human, serum, 4383 h
[8] = Proposed mechanism(s) of liver damage. [column 'MEC' in source]; details: human
[9] = Presence of at least one case with successful reintroduction. [column 'REINT' in source]; details: human
[10] = Highest frequency of acute liver toxicity observed during clinical trials, expressed as a percentage. [column '% AIGUE' in source]; details: human
[11] = human; remark: listed apart in the source
[12] = human; remark: listed apart in the source
[13] = human, serum; remark: listed apart in the source
[14] = Comments (NB not yet translated). [column 'COMMENTAIRES' in source]; details: human
[15] = human; remark: listed apart in the source
[16] = human; remark: listed apart in the source
[17] = human; remark: listed apart in the source
[18] = human; remark: listed apart in the source
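Throughout, for Hepatotoxicity (association with vascular disease): count of indexed literature references reporting vascular liver injury in humans, e.g. peliosis hepatitis, hepatic veno-occlusive disease or Budd-Chiari syndrome.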
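Throughout, for Hepatotoxicity (benign tumour): value is a count of indexed literature references citing a benign tumour confirmed by histopathology.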
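Throughout, for Hepatotoxicity (choleostasis): human cholestatic liver injury, shown by histopathology or by peak ALT or AST elevation over alkaline phosphatase ratio below 2, value counts indexed literature reports.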
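Throughout, for Hepatotoxicity (chronic liver disease): chronic liver injury confirmed by histopathology or persistently raised serum aminotransferase activity beyond 6 months, value given as the count of indexed literature references.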
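Throughout, for Hepatotoxicity (cirrhosis): value is a count of indexed literature references reporting cirrhosis confirmed by histopathology.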
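Throughout, for Hepatotoxicity (cytolytic): human cytolytic liver injury, shown by histopathology or by a ratio above 5 of peak ALT or AST elevation to alkaline phosphatase elevation, value counts indexed references.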
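Throughout, for Hepatotoxicity (granulomatous hepatitis): value is a count of indexed literature references reporting granulomatous liver disease confirmed by histopathology.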
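Throughout, for Hepatotoxicity (malignant tumour): malignant tumour confirmed by histopathology, value gives the count of indexed literature references reporting it.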
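Throughout, for Hepatotoxicity (severe hepatitis): human clinical data: severe hepatitis, meaning potentially life-threatening liver failure or clinically observed cases, the value counts how many indexed literature references report it.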
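Throughout, for Hepatotoxicity (steatosis): steatosis confirmed by histopathology, value is the count of indexed references.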

Row | SMILES | Hepatotoxicity (malignant tumour) [1] | Hepatotoxicity (moderate) [2] | Hepatotoxicity (time to onset) [3] | Hepatotoxicity (choleostasis) [4] | Hepatotoxicity (moderate) [5] [%] | Hepatotoxicity (cytolytic) [6] | Hepatotoxicity (chronic liver disease) [7] | Hepatotoxicity (mechanism) [8] | Hepatotoxicity (successful reintroduction) [9] | Hepatotoxicity (acute) [10] [%] | Hepatotoxicity (steatosis) [11] | Hepatotoxicity (severe hepatitis) [12] | Hepatotoxicity (acute) [13] | Hepatotoxicity (comment) [14] | Hepatotoxicity (benign tumour) [15] | Hepatotoxicity (granulomatous hepatitis) [16] | Hepatotoxicity (cirrhosis) [17] | Hepatotoxicity (association with vascular disease) [18] | other results
1 | COc1cc(C)c(/C=C/C(C)=C/C=C/C(C)=C/C(=O)O)c(C)c1C [ACITRETIN] | 0 | 16 | 1.5 hours - 5 months | 1 | 30 | 5 | 2 | Dose-dependant | yes | 10 | 0 | 0 | 12 | CHOLANGIOLITE CHOLESTASE_PROLONGEE AGGRAVATION_HVA | 0 | 0 | 1 | 0 | 
2 | Nc1ccc(O)c(C(=O)O)c1 [MESALAMINE] | 0 | 14 | 1 day - 1 year | 3 | 21 | 5 | 1 | Allergic | yes | 1 | 0 | 1 | 12 | CHOLANGITE RC/SULFASALAZINE AC_ANTI-N/-ML | 0 | 1 | 0 | 0 | 
3 | CCCCOCC(CN1C(=O)NC(=O)C(CC)(c2ccccc2)C1=O)OC(N)=O (stereo unspecified) [FEBARBAMATE] | 0 | 2 | 8 days - 15 months | 1 | 0 | 9 | 0 | Allergic | yes | 0 | 1 | 5 | 9 | AC_ANTI-N/-LM I/PAROXETINE | 0 | 1 | 0 | 0 | 
4 | CC(C)c1nc(CN(C)C(=O)N[C@H](C(=O)N[C@@H](Cc2ccccc2)C[C@H](O)[C@H](Cc2ccccc2)NC(=O)OCc2cncs2)C(C)C)cs1 [RITONAVIR] | 0 | 10 | < 1 day - 6 months | 2 | 44 | 11 | 0 | Dose-dependant | yes | 32.1 | 1 | 1 | 14 | REACTIVATION_HVB/HVC | 0 | 0 | 0 | 0 | 
5 | Cc1c2oc3c(C)ccc(C(=O)N[C@@H]4C(=O)N[C@H](C(C)C)C(=O)N5CCC[C@H]5C(=O)N(C)CC(=O)N(C)[C@@H](C(C)C)C(=O)O[C@@H]4C)c3nc-2c(C(=O)N[C@@H]2C(=O)N[C@H](C(C)C)C(=O)N3CCC[C@H]3C(=O)N(C)CC(=O)N(C)[C@@H](C(C)C)C(=O)O[C@@H]2C)c(N)c1=O [DACTINOMYCIN] (I: T[dV]P[Sar][NMeV] / II: T[dV]P[Sar][NMeV]; ester I:1-I:C, II:1-II:C; linker I:N-II:N via Actinocin(9to1)) | 0 | 8 | 3 weeks - 2 months | 0 | 12 | 5 | 1 | Dose-dependant | yes | 8.8 | 0 | 6 | 7 | I/RADIOTHERAPIE HNR | 1 | 0 | 0 | 16 | 
6 | CCOC(=O)NNc1nncc2ccccc12 [TODRALAZINE] | 0 | 0 | 11 days - 2 years | 0 | 0 | 3 | 0 | Allergic | yes | 0 | 0 | 2 | 3 | AC_ANTI-N/-MF | 0 | 0 | 0 | 0 | 
7 | CC1(C)S[C@@H]2[C@H](NC(=O)C(C(=O)O)c3ccccc3)C(=O)N2[C@H]1C(=O)O (stereo partly specified) [CARBENICILLIN] | 0 | 13 | 4 days - 3 months | 0 | 56 | 5 | 0 | Dose-dependant | yes | 0.7 | 0 | 0 | 5 | RC/TICARCILLINE | 0 | 0 | 0 | 0 | 
8 | O=C(CCCN1CCC(O)(c2ccc(Cl)cc2)CC1)c1ccc(F)cc1 [HALOPERIDOL] | 0 | 12 | 2 weeks - 5 months | 8 | 35.1 | 4 | 1 | Allergic | yes | 0.8 | 0 | 0 |  | RC/FLUPHENAZINE CHOLESTASE_PROLONGEE #CBP | 0 | 0 | 0 | 0 | 
9 | CCCc1cc(=O)[nH]c(=S)[nH]1 [PROPYLTHIOURACIL] | 0 | 5 | 1 day - 1.3 years |  |  |  | 4 |  | yes |  | 0 |  |  | AC_ANTI-N/-M CHOLESTASE_PROLONGEE | 0 |  | 1 | 0 | Hepatotoxicity (choleostasis) ([4]; Liver): 15; Hepatotoxicity (moderate) ([5]; Liver): 27.8%; Hepatotoxicity (cytolytic) ([6]; Liver): 31; Hepatotoxicity (mechanism) ([8]; Liver): Allergic, Reactive metabolite; Hepatotoxicity (severe hepatitis) ([12]; Liver): 19; Hepatotoxicity (granulomatous hepatitis) ([16]; Liver): 0
10 | C=C[C@H]1C[N@@]2CC[C@H]1C[C@H]2[C@H](O)c1ccnc2ccc(OC)cc12 [QUININE] | 0 | 2 | < 1 day - 2 years | 2 |  | 3 | 0 | Allergic | yes |  | 0 |  |  | AC_ANTI-N | 0 | 4 | 0 | 0 | Hepatotoxicity (moderate) ([5]; Liver): 15.4%; Hepatotoxicity (severe hepatitis) ([12]; Liver): 0
11 | C=C[C@H]1C[N@@]2CC[C@H]1C[C@@H]2[C@@H](O)c1ccnc2ccc(OC)cc12 [QUINIDINE] | 0 | 5 | 1 day - 7 months | 12 |  | 12 | 1 | Allergic | yes |  | 0 |  |  | RC/PRAJMALINE | 0 | 11 | 0 | 0 | Hepatotoxicity (moderate) ([5]; Liver): 2%; Hepatotoxicity (severe hepatitis) ([12]; Liver): 2
